Measurements reported in patent US10071042B2, “External dermatological agent for anti-ageing” (Hayashibara Co., Ltd., priority 2014, dated 2018).

Legend:
[1] = system: human epidermoid carcinoma cell line A-431; experiment: Tight-junction function, lucifer yellow transmittance (Experiments 2 and 8); type: cell-based; settings: 3 mM, single use; reduction against control
Text: A human epidermoid carcinoma cell line A-431 was suspended in a media, supplemented with any of the test substances disclosed in Table 4 and having respective concentrations as indicated in the table, to give a cell concentration of 1×10^5 cells/mL, and each cell suspension was placed in an insert cup for a 12-well culture plate by two milliliters per well, followed by culturing the cells until reaching a confluent state through over the bottom surface of each well. The inner and the outer cup volumes were adjusted to give two milliliters while checking both the liquid levels of the cups were constant, and lucifer yellow as a model for permeating substance, commercialized by Life Technologies Corporation, CA, USA, was added to each inner cup to give a final concentration of 100 μM. Thereafter, the fluorescent intensities of lucifer yellow in the culture media in both the inner and the outer cups were measured, followed by calculating the percentage of the fluorescent intensity of the outer cup against that of the sum of the outer and the inner cups for use as a transmittance of lucifer yellow with the following equation. Equation: Transmittance of lucifer yellow (%)={(Absorbance of a liquid outside of an insert cup)/[(Absorbance of a liquid inside of the insert cup)+(Absorbance of the liquid outside of the insert cup)]}×100
There was provided a control system prepared similarly as above except for not adding any of the test substances, and the transmittance of lucifer yellow was regarded as 100% for evaluating the reduction of transmittance due to the reinforcement of the function of tight junction, based on the following equation. Equation: Relative transmittance (Relative percentage (%)) of lucifer yellow=[(Transmittance of a sample with any one of test substances)/(Transmittance of control)]×100
The experiment was repeated three times, and the data was subjected to the Dunnett's multiple comparisons with control. The symbol “*” means a level of significance of p<0.01.
Except for adding the test substances listed in Table 11 at respective concentrations shown in the table, experiments were respectively conducted in accordance with the methods in Experiment 2 disclosed in the specification to examine the effect of the combination use with ethylenediaminetetraacetate used as a preservative for cosmetics on the action of reinforcing the function of tight junction by sodium adenosine N1-oxide 5′-phosphate. A control system was provided and similarly treated as above except for not adding any test substance. The reduction rate of relative transmittance of lucifer yellow against that of control based on the following equation. Equation: Reduction rate of relative transmittance of lucifer yellow (%)=100−[(Transmittance of a sample with any one of test substances)/(Transmittance of control)]×100

filaggrin protein = experiment: Expression of filaggrin protein, Western blot filaggrin/actin (Experiment 3); type: cell-based, human; settings: 0.5 mM (positive control); control = 100%
Protocol: Then, the expression of filaggrin was induced in such a manner of further culturing the cells for another four days, while replacing the culture medium with an EpiLife medium supplemented with 2 μM, 5 μM, or 10 μM of sodium adenosine N1-oxide 5′-phosphate every three days. […] After four days culture, the resultant cells were washed with Dulbecco's phosphate buffered saline, added with 0.1 mL of an SDS sample buffer (pH 6.8) containing 62.5 mM Tris-HCl, 2% SDS, 10% glycerol, and 50 mM DTT along with a protease inhibitor, and collected with a cell scraper. The collected cells were boiled for 10 min, disrupted ultrasonically, and quantified with “Pierce BCA Protein Assay Kit”, commercialized by ThermoFisher Scientific K. K., Yokohama, Japan. A prescribed amount of the resulting disrupted cells was sampled and subjected to SDS-polyacrylamide gel electrophoresis in an amount of 100 μg/lane, and the resulting gel was transferred to a PVDF membrane. The resulting transferred PVDF membrane was blocked with “Block Ace”, commercialized by DS Pharma Biomedical Co., Ltd., Osaka, Japan, reacted with a 200-fold dilution of “AKH1”, a mouse anti-filaggrin antibody, commercialized by, Santa Cruz Biotechnology Inc., CA, USA, or a 20,000-fold dilution of “MAB1501”, a mouse actin antibody, commercialized by Chemicon International Inc., MA, USA, as a first antibody, and then reacted with a 2,000-fold dilution of “P0447”, an HRP-labeled anti-mouse immunoglobulin, commercialized by Dako Japan, Tokyo, Japan, as a secondary antibody. After the reaction, by using ECL Plus Western Blotting Detection System, commercialized by GE Healthcare Japan, Tokyo, Japan, bands were detected on “Hyperfilm ECL”, a chemiluminescent film commercialized by GE Healthcare Japan, Tokyo, Japan. The detected bands were analyzed and quantified with “Image J”, an image analyzing software. A control system with no addition of any of the test substances was provided and the increasing intensity ratio of a band of filaggrin/actin was regarded as 100%, with which data for the increased percentages of the intensity ratios of bands of filaggrin/actin of the test substances were comparatively evaluated.

[2] = system: normal human epidermal keratinocytes; experiment: Production level of cornified envelope, absorbance 310 nm (Experiments 1-2 and 7); type: cell-based; settings: single use, increase over control
Protocol: Normal human epidermal keratinocytes were cultured similarly as in Experiment 1-1, except for adding the test substances listed in Table 2 at prescribed concentrations to the cells. The resulting cultured cells were washed once with phosphate buffered saline (PBS), followed by scrapping off the cells adhered to each culture plate by adding 0.5 mL of PBS to each well of the plates. The cell suspensions thus obtained were added with 10% sodium lauryl sulfate solution in a volume of ¼ of each of the suspension volumes, followed by stirring and freezing the resulting mixtures at −80° C. After thawing, the resulting mixtures were centrifuged at 12,000×g for 15 min, followed by collecting the cell precipitates which were then washed once with phosphate buffered saline containing 2% sodium lauryl sulfate. The resulting mixtures were centrifuged at 12,000×g for 15 min, followed by collecting the cells and suspending the collected cells with phosphate buffered saline containing 2% sodium lauryl sulfate and 20 mM dithiothreitol. The resulting cell suspensions were boiled in a boiling water bath for one hour and measured for absorbance at a wavelength of 310 nm to determine the production level of cornified envelope for each test system added with any of the test substances. A control system was provided similarly as above except for not adding any one of the test substances to the system, and determined for absorbance at a wavelength of 310 nm similarly as in the above to be regarded as 100%. The production level of cornified envelope for each test substance was relatively evaluated based on the following equation. Equation: Production level of cornified envelope (Relative value (%))=[(Absorbance of a sample with any one of test substances)/(Absorbance of Control)]×100
(§1) The experiment was repeated three times, and the data was subjected to the Dunnett's multiple comparisons with Control. The symbol “*” means a level of significance of p<0.01.
(§2) Except for adding the test substances listed in Tables 8 and 9 at respective concentrations shown in the tables, experiments were respectively conducted in accordance with the methods in Experiments 1-2 and 1-3 disclosed in the specification to examine the effect of the combination use of epigallocatechin gallate, which is used as an antioxidant for cosmetics, and sodium adenosine N1-oxide 5′-phosphate on the action of accelerating the cornified-envelope production and the action of enhancing the transglutaminase activity of sodium adenosine N1-oxide 5′-phosphate. A control system was provided and similarly treated as above except for not adding any test substance and was determined for both the increase rates of cornified-envelope production level and the transglutaminase activity, based on the following equations. Equation: Increase rate of cornified envelope production level (%)={[(Absorbance of a sample with any one of test substances)/(Absorbance of control)]×100}−100 Equation: Increase rate of transglutaminase (%)={[(Absorbance of a sample with any one of test substances)/(Absorbance of control)]×100}−100

transglutaminase = experiment: Transglutaminase activity, fluorescein cadaverine uptake (Experiments 1-3 and 7); type: cell-based, human; settings: single use, increase over control
Protocol: Normal human epidermal keratinocytes were cultured similarly as in Experiment 1-1, except for adding the test substances as listed in Table 3 to respective culture systems. The cultured normal human epidermal keratinocytes were added with 100 μM of fluorescein cadaverine and allowed to stand for four hours. Thereafter, the resulting cells were washed once with phosphate buffered saline and further treated with cold methanol for 10 min for cell fixation. The fixed cells were washed thrice with cold methanol, followed by the addition of phosphate buffered saline. Fluorescein cadaverine taken in the cells via transglutaminase was analyzed with Cell Imaging Station, commercialized by Molecular Probes Life Technology, France, and the analyzed fluorescent intensities were regarded as transglutaminase activities. There was provided a control system similarly as in the above, except for not adding any of the test substances. The transglutaminase activity of each test substance was evaluated as a relative value determined with the following equation using the fluorescent intensity of the control system being regarded as 100%. Equation: Transglutaminase activity (relative value (%))=[(Fluorescent intensity of a sample with any one of test substances)/(Fluorescent intensity of control)]×100
as §1, §2

matrix metalloprotease-1 = experiment: Matrix metalloprotease-1 production of NHDF after IL-1β, ELISA (Experiments 5 and 9); type: cell-based, human; settings: 200 μM, single use; reduction against control
Protocol: Normal human dermal fibroblasts (NHDF), which had been suspended in a Dulbecco's Modified Eagle Medium supplemented with 10% fetal calf serum to give a concentration of 2.5×10^5 cells/mL, were placed in 96-well microplates by 0.1 mL/well and cultured until reaching a confluent state over the bottom of each well. Thereafter, the medium in each well was replaced with a fresh serum-free culture medium and culture for another 24 hours, added with any one of the test substances in Table 6 at each concentration shown in the table, and cultured for additional 24 hours. Then, the resulting cell cultures were added with human IL-1β to give a final concentration of 1 ng/ml, followed by culturing the cells for another 24 hours. After completion of the culture, matrix metalloprotease-1 in the supernatant in each well was detected with an enzyme-linked immuno sorbent assay (ELISA), commercialized by R & D Systems, Inc., MN, USA, developed coloration with tetramethylbenzidine, and measured for absorption at a wavelength of 450 nm. A control system was provided similarly as above except for not adding any test substance, and determined for the activity of matrix metalloprotease-1 similarly as in the above to be regarded as 100%. The production level of matrix metalloprotease-1 for each test substance was comparatively evaluated based on the following equation. Equation: Production level of matrix metalloprotease-1 (relative value (%))=[(Absorbance of a sample with any one of test substances)/(Absorbance of control)]×100
The experiment was repeated three times, and the data were compared to that of control with the Dunnett's multiple comparisons test. The symbol “*” means a level of significance of p<0.01.
Except for adding the test substances listed in Table 12 at respective concentrations shown in the table, experiments were respectively conducted in accordance with the methods in Experiment 5 disclosed in the specification to examine the effect of the combination use with ascorbic acid 2-glucoside used as a skin whitener in cosmetics on the action of anti-wrinkles by analogues of adenosine N1-oxide 5′-phosphate. A control system was provided and similarly treated as above except for not adding any test substance. The reduction rate of the production level of matrix metalloprotease-1 against that of control based on the following equation. Equation: Reduction rate of the production level of matrix metalloprotease−1(%)=100−[(Absorbance of a sample with any one of test substances)/(Absorbance of control)]×100

SMILES: O=C(O)CN(CCN(CC(=O)O)CC(=O)O)CC(=O)O [Ethylenediaminetetraacetate, reference compound]
- Reduction rate of relative transmittance of lucifer yellow (%) [1]: −24.7%

SMILES: [Ca+2].[Cl-].[Cl-] [CaCl2, calcium chloride, reference compound]
- Relative expression level of filaggrin protein (%) (filaggrin protein): 289%

SMILES: O=C(O[C@@H]1Cc2c(O)cc(O)cc2O[C@@H]1c1cc(O)c(O)c(O)c1)c1cc(O)c(O)c(O)c1 [Epigallocatechin gallate, reference compound]
- Increase rate of cornified envelope formation level (%) ([2]; 1.6 μM): 28.0%
- Increase rate of cornified envelope formation level (%) ([2]; 3.3 μM): 37.3%
- Increase rate of transglutaminase activity (%) (transglutaminase; 1.6 μM): 5.6%
- Increase rate of transglutaminase activity (%) (transglutaminase; 3.3 μM): 19.0%
- Increase rate of transglutaminase activity (%) (transglutaminase; 6.5 μM): 6.5%

SMILES: O=C1O[C@H]([C@@H](O)CO)C(O)=C1O[C@H]1O[C@H](CO)[C@@H](O)[C@H](O)[C@H]1O [Ascorbic acid 2-glucoside, reference compound]
- Reduction rate of the production level of matrix metalloprotease-1 activity (%) (matrix metalloprotease-1): 2.1%
